Laboratory results from the NIST ThermoML archive (doi:10.1016/j.jct.2013.01.013).

Test: xn = mol fraction of the nth substance listed
Settings: 101 kPa, Liquid; for speed of sound: Linear variable-path acoustic interferometer; for mass density: Pycnometric method; for viscosity: Capillary tube (Ostwald / Ubbelohde) method

C=C(C)C(=O)OC [methyl methacrylate] + CN(C)C=O
Settings | mass density [kg/m3] | speed of sound [m/s] | viscosity [mPa·s]
303.15 K, x1 = 0.0696 | 939.58 | – | –
303.15 K, x1 = 0.1417 | 939.03 | – | –
303.15 K, x1 = 0.211 | 938.49 | – | –
303.15 K, x1 = 0.2855 | 937.9 | – | –
303.15 K, x1 = 0.3573 | 937.33 | – | –
303.15 K, x1 = 0.4308 | 936.73 | – | –
303.15 K, x1 = 0.5042 | 936.13 | – | –
303.15 K, x1 = 0.578 | 935.52 | 1292.3 | –
303.15 K, x1 = 0.6552 | 934.88 | 1270.3 | –
303.15 K, x1 = 0.7204 | 934.33 | 1251.4 | –
303.15 K, x1 = 0.7873 | 933.76 | 1231.8 | –
303.15 K, x1 = 0.8548 | 933.19 | 1211.8 | –
303.15 K, x1 = 0.9268 | 932.55 | 1190.4 | –
303.15 K, x1 = 1 | 931.89 | 1168.5 | –
308.15 K, x1 = 0.0696 | 934.99 | 1411 | 0.694
308.15 K, x1 = 0.1417 | 934.35 | 1392.3 | 0.6678
308.15 K, x1 = 0.211 | 933.72 | 1374.3 | 0.6435
308.15 K, x1 = 0.2855 | 933.03 | 1354.7 | 0.6191
308.15 K, x1 = 0.3573 | 932.36 | 1335.6 | 0.5978
308.15 K, x1 = 0.4308 | 931.67 | 1315.7 | 0.5793
308.15 K, x1 = 0.5042 | 930.98 | 1295.5 | 0.563
308.15 K, x1 = 0.578 | 930.28 | 1275 | 0.5488
308.15 K, x1 = 0.6552 | 929.55 | 1253.3 | 0.5358
308.15 K, x1 = 0.7204 | 928.93 | 1234.7 | 0.5268
308.15 K, x1 = 0.7873 | 928.28 | 1215.4 | 0.5188
308.15 K, x1 = 0.8548 | 927.63 | 1195.7 | 0.5113
308.15 K, x1 = 0.9268 | 926.91 | 1174.4 | 0.5038
308.15 K, x1 = 1 | 926.15 | 1152.6 | 0.496
313.15 K, x1 = 0.0696 | 930.4 | 1393.7 | 0.662
313.15 K, x1 = 0.1417 | 929.67 | 1375.1 | 0.6373
313.15 K, x1 = 0.211 | 928.95 | 1357.1 | 0.6142
313.15 K, x1 = 0.2855 | 928.16 | 1337.5 | 0.5913
313.15 K, x1 = 0.3573 | 927.4 | 1318.4 | 0.5713
313.15 K, x1 = 0.4308 | 926.61 | 1298.4 | 0.5529
313.15 K, x1 = 0.5042 | 925.83 | 1278.3 | 0.5375
313.15 K, x1 = 0.578 | 925.04 | 1257.9 | 0.5237
313.15 K, x1 = 0.6552 | 924.22 | 1236.2 | 0.5115
313.15 K, x1 = 0.7204 | 923.53 | 1217.7 | 0.503
313.15 K, x1 = 0.7873 | 922.81 | 1198.4 | 0.4951
313.15 K, x1 = 0.8548 | 922.07 | 1178.7 | 0.4875
313.15 K, x1 = 0.9268 | 921.26 | 1157.4 | 0.4796
313.15 K, x1 = 1 | 920.41 | 1135.4 | 0.4723
318.15 K, x1 = 0.0696 | 925.81 | 1375.2 | 0.6419
318.15 K, x1 = 0.1417 | 924.99 | 1356.8 | 0.6179
318.15 K, x1 = 0.211 | 924.18 | 1338.9 | 0.5953
318.15 K, x1 = 0.2855 | 923.29 | 1319.4 | 0.5728
318.15 K, x1 = 0.3573 | 922.44 | 1300.3 | 0.553
318.15 K, x1 = 0.4308 | 921.55 | 1280.5 | 0.5345
318.15 K, x1 = 0.5042 | 920.68 | 1260.5 | 0.5185
318.15 K, x1 = 0.578 | 919.8 | 1240.2 | 0.5045
318.15 K, x1 = 0.6552 | 918.89 | 1218.7 | 0.4925
318.15 K, x1 = 0.7204 | 918.12 | 1200.3 | 0.4837
318.15 K, x1 = 0.7873 | 917.33 | 1181.2 | 0.475
318.15 K, x1 = 0.8548 | 916.51 | 1161.6 | 0.467
318.15 K, x1 = 0.9268 | 915.61 | 1140.4 | 0.4583
318.15 K, x1 = 1 | 914.66 | 1118.3 | 0.4499
